In patent US20240299486A1, “ADDRESSING INJECTION SITE REACTIONS ASSOCIATED WITH THE ADMINISTRATION OF ELAMIPRETIDE” (STEALTH BIOTHERAPEUTICS INC., priority 2022, published 2024):
“Also recorded” adds a separate entry of the source.

Assays:
healthy subjects [1] = assay: Phase 1 crossover study: clinically assessed injection site reactions; conditions: for Clinically assessed Erythema or redness, (%) of Reported Reactions / Clinically assessed Erythema or redness, Number of Reported Reactions / Clinically assessed Induration or swelling, (%) of Reported Reactions / Clinically assessed Induration or swelling, Number of Reported Reactions / Clinically assessed Pain or tenderness, (%) of Reported Reactions / Clinically assessed Pain or tenderness, Number of Reported Reactions / Clinically assessed Pruritis, (%) of Reported Reactions / Clinically assessed Pruritis, Number of Reported Reactions: 60 mg SQ elamipretide with or without the intervention, across all timepoints, all participants, n = 80; for Overall effect of the intervention on ISRs compared to elamipretide alone: clinical and self-assessments, 60 mg SQ elamipretide, vs Arm 1 (no intervention)
Protocol: (§1) • This Phase 1, open-label, 6-arm crossover study included 10 healthy subjects ≥18 and ≤65 years of age. • All subjects received 60 mg of SQ elamipretide to alternating quadrants of the abdomen on each of 6 occasions (FIG. 3), with or without the interventions listed in Table 2. • For each treatment arm, ISR clinical and self-assessments were performed pre-elamipretide administration and at 0.5, 1, 2, 4, 6, 12, 24, and 48 hours after each elamipretide dose. • Blood samples for plasma concentrations of elamipretide and its metabolites were also collected pre-dose and at 0.25, 0.5, 1, 2, 4, and 6 hours post-elamipretide dose. • Primary endpoints consisted of comparisons of the grading from the clinical assessments and the self-assessments of each ISR parameter following administration of elamipretide with each separate intervention versus that of elamipretide alone. • Secondary endpoints consisted of comparison of various pharmacokinetic (PK) parameters and adverse events following administration of elamipretide with each separate intervention versus that of elamipretide alone.
(§2) After the screening period (up to 28 days) in this phase 1, open-label, 4-week, 6-part, crossover study, all eligible subjects received 60 mg (0.75 mL) of SC elamipretide to alternating quadrants of the abdomen on each of 6 occasions, with or without potential ISR interventions. The first treatment arm (Arm 1) commenced on Day 1 with administration of elamipretide only, followed by the remaining treatment arms (Arms 2-6) with the following potential mitigations: mometasone furoate, 0.1% ointment, applied once under a hydrocolloid occlusive dressing (DuoDERM Extra Thin) 7 days prior to elamipretide administration (Arm 2); ice application at the elamipretide injection site 5 minutes pre- and post-drug administration (Arm 3); tacrolimus 0.1% ointment applied 15 minutes pre-drug dosing (Arm 4); doxepin 5% cream applied 15 minutes pre-elamipretide administration (Arm 5); and diphenhydramine 50 mg orally taken 2 hours prior to administration (Arm 6). For each treatment arm, blood samples for plasma concentrations of elamipretide and its metabolites were collected pre-dose and at 0.25, 0.5, 1, 2, 4, and 6 hours post-elamipretide dose. Vital signs were recorded pre-dose and at 0.5 and 6 hours post-elamipretide administration. ISR clinical and self-assessments were performed pre-elamipretide administration and at 0.5, 1, 2, 4, 6, 12, 24, and 48 hours after each elamipretide dose. Injection sites were photographed at 0.5, 1, 2, 4, and 12 hours post-elamipretide dose.
(§3) The primary endpoints of this study were comprised of the following efficacy measures: clinical assessments and subject self-assessments. Specifically, the primary endpoints consisted of comparisons of the grading of each ISR parameter following administration of elamipretide with each separate intervention versus the grading of each ISR parameter following administration of elamipretide alone. For clinical assessments, the clinical staff used a standard procedure adapted from the Division of Aids Table for Grading the Severity of Adult and Pediatric Adverse Events to score pain, erythema, induration, and pruritus using a 4-point scale based on severity (0=None, 1=Mild, 2=Moderate, 3=Severe, 4=Potentially Life Threatening). The self-assessments were based on a questionnaire to determine how bothered the patient was following each injection of elamipretide and included the following parameters: pain, burning sensation, cold sensation, itching, redness, swelling, and bruising.
(§4) All statistical analyses were performed using SAS GRID Linux/SAS Studio (Version 9.4, or higher). PK parameters for elamipretide and its metabolites, M1 and M2, were summarized using descriptive statistics.

healthy subjects [2] = assay: Phase 1 crossover study: self-assessed injection site reactions; type: in vivo, human; conditions: 60 mg SQ elamipretide with or without the intervention, across all timepoints, all participants, n = 80
Protocol: as §1, §2, §3, §4

healthy subjects [3] = assay: Phase 1 crossover study: safety (TEAEs, vital signs, ECG); type: in vivo, human; conditions: Arm 6, 50 mg orally 2 hours prior to 60 mg SQ elamipretide, 10 subjects
Protocol: The secondary endpoints of this study consisted of PK and safety assessments. After measuring absorption and distribution PK of elamipretide and its metabolites (M1 and M2), comparisons of each Tmax, Cmax, and AUC0-6 following administration of elamipretide with each separate intervention versus Tmax, Cmax, and AUC0-6 following administration of elamipretide alone were performed. Safety assessments consisted of comparison of treatment emergent adverse events (TEAEs) reported following administration of elamipretide with each separate intervention versus TEAEs reported following administration of elamipretide alone. Safety measurements included TEAEs, clinical laboratory tests (e.g., serum chemistry and hematology), 12-lead ECGs, physical exams, and vital signs.

MRGPRX2 receptor = biological target: T1, MRGPRX2 receptor (Homo sapiens, UniProt Q96LB1); assay: Fluo-4 calcium assay in MRGPRX2 expressing Chem-1 cells; type: cell-based
T1 construct: host or cells: Chem-1 cells (G418-selected)
T1 sequence (Q96LB1 1-330): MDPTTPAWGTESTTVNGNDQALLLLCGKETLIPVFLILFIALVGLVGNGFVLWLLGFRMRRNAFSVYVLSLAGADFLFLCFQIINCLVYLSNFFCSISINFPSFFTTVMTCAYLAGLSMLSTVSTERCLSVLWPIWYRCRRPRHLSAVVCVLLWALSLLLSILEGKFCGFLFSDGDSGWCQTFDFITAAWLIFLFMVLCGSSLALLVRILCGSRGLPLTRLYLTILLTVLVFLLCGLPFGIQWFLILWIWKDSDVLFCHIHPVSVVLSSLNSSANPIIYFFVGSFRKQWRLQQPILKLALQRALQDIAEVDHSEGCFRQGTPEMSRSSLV

[4] = clinical assessment, vs elamipretide alone

| SMILES | Clinically assessed Erythema or redness, (%) of Reported Reactions (healthy subjects [1]) | Clinically assessed Erythema or redness, Number of Reported Reactions (healthy subjects [1]) | Clinically assessed Induration or swelling, (%) of Reported Reactions (healthy subjects [1]) | Clinically assessed Induration or swelling, Number of Reported Reactions (healthy subjects [1]) | Clinically assessed Pain or tenderness, (%) of Reported Reactions (healthy subjects [1]) | Clinically assessed Pain or tenderness, Number of Reported Reactions (healthy subjects [1]) | Clinically assessed Pruritis, (%) of Reported Reactions (healthy subjects [1]) | Clinically assessed Pruritis, Number of Reported Reactions (healthy subjects [1]) | Overall effect of the intervention on ISRs compared to elamipretide alone (healthy subjects [1]) | Self-assessed Bruising, (%) of Reported Reactions (healthy subjects [2]) | Self-assessed Bruising, Number of Reported Reactions (healthy subjects [2]) | Self-assessed Burning sensation, (%) of Reported Reactions (healthy subjects [2]) | Self-assessed Burning sensation, Number of Reported Reactions (healthy subjects [2]) | Self-assessed Cold Sensation, Number of Reported Reactions (healthy subjects [2]) | Self-assessed Itching, (%) of Reported Reactions (healthy subjects [2]) | Self-assessed Itching, Number of Reported Reactions (healthy subjects [2]) | Self-assessed Pain, (%) of Reported Reactions (healthy subjects [2]) | Self-assessed Pain, Number of Reported Reactions (healthy subjects [2]) | Self-assessed Redness, (%) of Reported Reactions (healthy subjects [2]) | Self-assessed Redness, Number of Reported Reactions (healthy subjects [2]) | other results |
| --- | --- | --- | --- | --- | --- | --- | --- | --- | --- | --- | --- | --- | --- | --- | --- | --- | --- | --- | --- | --- | --- |
| CN(C)CCC=C1c2ccccc2COc2ccccc21 [Doxepin] | (27.5) % | 22 | (21.3) % | 17 | (12.5) % | 10 | (12.5) % | 10 | little impact | (0.0) % | 0 | (7.5) % | 6 | 0.0 | (12.5) % | 10 | (8.8) % | 7 | (35.0) % | 28 | Self-assessed Swelling, (%) of Reported Reactions (healthy subjects [2]): (21.3) %; Self-assessed Swelling, Number of Reported Reactions (healthy subjects [2]): 17 |
| CN(C)CCOC(c1ccccc1)c1ccccc1 [Diphenhydramine] | (26.3) % | 21 | (6.3) % | 5 | (2.5) % | 2 | (10.0) % | 8 | most reduced; also recorded: potential in reducing induration; also recorded: Improvement | (1.3) % | 1 | (1.3) % | 1 | 0.0 | (11.3) % | 9 | (2.5) % | 2 | (25.0) % | 20 | incidence of induration at 0.5 hours post-elamipretide dose (healthy subjects [1]; [4]): trend to significance in reduction; incidence of induration at 1 hour post-elamipretide dose (healthy subjects [1]; [4]): significantly decreased incidence; Self-assessed Swelling, (%) of Reported Reactions (healthy subjects [2]): (6.3) %; Self-assessed Swelling, Number of Reported Reactions (healthy subjects [2]): 5; mild somnolence, incidence (healthy subjects [3]): 50%; mild somnolence, number of subjects (healthy subjects [3]): 5 subjects |
| CCNC(=O)[C@@H]1CCCN1C(=O)[C@H](CCCNC(=N)N)NC(=O)[C@H](CC(C)C)NC(=O)[C@@H](CC(C)C)NC(=O)[C@H](Cc1ccc(O)cc1)NC(=O)[C@H](CO)NC(=O)[C@H](Cc1c[nH]c2ccccc12)NC(=O)[C@H](Cc1c[nH]cn1)NC(=O)[C@@H]1CCC(=O)N1 [leuprolide] | – | – | – | – | – | – | – | – | – | – | – | – | – | – | – | – | – | – | – | – | activation of the MRGPRX2 expressing cells (calcium mobilization) (MRGPRX2 receptor; Chem-1 cells, Fluo-4): dose dependent activation |
| O=c1c(O)c(-c2ccc(O)c(O)c2)oc2cc(O)cc(O)c12 [quercetin, 3,3′,4′,5,7-pentahydroxyflavone] | – | – | – | – | – | – | – | – | – | – | – | – | – | – | – | – | – | – | – | – | inhibition of the activation of the MRGPRX2 receptor caused by elamipretide (MRGPRX2 receptor; 100 μM of elamipretide, various concentrations of quercetin): in a dose-dependent manner, inhibit the activation; also recorded: inhibits activation of MRGPRX2 |
| C[C@@H]1C[C@H]2[C@@H]3CCC4=CC(=O)C=C[C@]4(C)[C@@]3(Cl)[C@@H](O)C[C@]2(C)[C@@]1(OC(=O)c1ccco1)C(=O)CCl [Mometasone furoate] | (37.5) % | 30 | (10.0) % | 8 | (8.8) % | 7 | (2.5) % | 2 | most reduced; also recorded: favorably mitigate | (1.3) % | 1 | (8.8) % | 7 | 0.0 | (6.3) % | 5 | (8.8) % | 7 | (41.3) % | 33 | Overall effect of the intervention on ISRs compared to elamipretide alone (healthy subjects [1]; listed as mometasone furoate ointment): Improvement; incidence of induration at 0.5 hours post-elamipretide dose (healthy subjects [1]; [4]): significantly reduced incidence; incidence of induration at 1 hour post-elamipretide dose (healthy subjects [1]; [4]): Trends to significance in reduction; pruritus at 0.5 hours post-dose (healthy subjects [1]; [4]): Trends to significance in reduction; Self-assessed Swelling, (%) of Reported Reactions (healthy subjects [2]): (11.3) %; Self-assessed Swelling, Number of Reported Reactions (healthy subjects [2]): 9 |
| C=CC[C@@H]1/C=C(\C)C[C@H](C)C[C@H](OC)[C@H]2O[C@@](O)(C(=O)C(=O)N3CCCC[C@H]3C(=O)O[C@H](/C(C)=C/[C@@H]3CC[C@@H](O)[C@H](OC)C3)[C@H](C)[C@@H](O)CC1=O)[C@H](C)C[C@@H]2OC [Tacrolimus] | (31.3) % | 25 | (22.5) % | 18 | (3.8) % | 3 | (15.0) % | 12 | little impact | (10.0) % | 8 | (1.3) % | 1 | 0.0 | (15.0) % | 12 | (3.8) % | 3 | (25.0) % | 20 | Overall effect of the intervention on ISRs compared to elamipretide alone (healthy subjects [1]; listed as tacrolimus): most reduced; Overall effect of the intervention on ISRs compared to elamipretide alone (healthy subjects [1]; listed as tacrolimus ointment): Improvement; Self-assessed Swelling, (%) of Reported Reactions (healthy subjects [2]): (18.8) %; Self-assessed Swelling, Number of Reported Reactions (healthy subjects [2]): 15 |
